Reference: ChEMBL document CHEMBL1123961 (J Med Chem, 1988)

How the values were obtained:
[1] = biological target: T1, Serotonin receptor 2a and 2c (5HT2A and 5HT2C) (Rattus norvegicus, UniProt P08909+P14842); assay: Binding affinity at [3H]KET labeled sites of 5-hydroxytryptamine 2 receptor determined using [125I]- DOI as radioligand in rat frontal cortex; assay type: tissue-based
[2] = biological target: T1, Serotonin receptor 2a and 2c (5HT2A and 5HT2C); assay: Binding affinity at 5-hydroxytryptamine 2 receptor determined using [125I]- DOI as radioligand in rat frontal cortex; assay type: tissue-based
[3] = biological target: T1, Serotonin receptor 2a and 2c (5HT2A and 5HT2C); assay: Binding affinity at [3H]DOB labeled sites of 5-hydroxytryptamine 2 receptor determined using [125I]- DOI as radioligand in rat frontal cortex; assay type: tissue-based
[4] = biological target: Serotonin receptor 2a and 2c (5HT2A and 5HT2C) (Rattus norvegicus) (UniProt P08909+P14842)
Serotonin receptor 2a and 2c (5HT2A and 5HT2C) (Rattus norvegicus), sequence (P08909 whole entry, looked up): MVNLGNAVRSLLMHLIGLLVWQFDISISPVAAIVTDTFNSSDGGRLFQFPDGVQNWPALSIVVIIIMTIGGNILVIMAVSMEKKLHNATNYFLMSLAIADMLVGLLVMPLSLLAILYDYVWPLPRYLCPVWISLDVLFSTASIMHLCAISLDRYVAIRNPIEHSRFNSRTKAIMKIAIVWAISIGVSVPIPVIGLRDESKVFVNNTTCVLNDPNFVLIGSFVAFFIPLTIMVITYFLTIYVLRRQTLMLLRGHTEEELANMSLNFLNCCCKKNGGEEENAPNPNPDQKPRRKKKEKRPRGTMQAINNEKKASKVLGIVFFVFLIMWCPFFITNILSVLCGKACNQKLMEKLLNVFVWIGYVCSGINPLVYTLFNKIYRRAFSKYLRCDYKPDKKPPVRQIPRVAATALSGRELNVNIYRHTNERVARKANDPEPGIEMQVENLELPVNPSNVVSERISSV
Serotonin receptor 2a and 2c (5HT2A and 5HT2C) (Rattus norvegicus), sequence (P14842 whole entry, looked up): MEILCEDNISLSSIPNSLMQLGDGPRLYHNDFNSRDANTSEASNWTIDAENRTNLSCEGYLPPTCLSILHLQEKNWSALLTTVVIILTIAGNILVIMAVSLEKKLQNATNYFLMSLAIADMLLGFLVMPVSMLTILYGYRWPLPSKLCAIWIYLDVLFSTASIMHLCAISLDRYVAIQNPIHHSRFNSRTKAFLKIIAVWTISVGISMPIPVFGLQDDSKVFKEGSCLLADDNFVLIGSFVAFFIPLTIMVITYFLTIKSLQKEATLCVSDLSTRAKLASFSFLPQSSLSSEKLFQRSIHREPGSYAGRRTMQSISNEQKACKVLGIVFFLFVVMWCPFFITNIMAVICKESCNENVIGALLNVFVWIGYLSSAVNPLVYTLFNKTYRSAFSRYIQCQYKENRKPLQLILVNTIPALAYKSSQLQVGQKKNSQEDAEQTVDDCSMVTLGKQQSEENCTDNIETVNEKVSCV
Description: Hill coefficient of compound was determined

[5] = biological target: T1, Serotonin receptor 2a and 2c (5HT2A and 5HT2C); assay: Binding affinity at [3H]KET labeled sites of 5-hydroxytryptamine 2 receptor was determined using [125I]- DOI as radioligand in rat frontal cortex; assay type: tissue-based
[6] = biological target: T1, Serotonin receptor 2a and 2c (5HT2A and 5HT2C); assay: Binding affinity at [3H]DOB labeled sites of 5-hydroxytryptamine 2 receptor was determined using [125I]- DOI as radioligand in rat frontal cortex; assay type: tissue-based

Row | SMILES | Ki [2] | nH [4] | other results
1 | COc1cc(CC(C)N)c(OC)cc1I (racemic) | 2.8 nM | 0.89 | Ki [1]: 20 nM; Ki [3]: 0.7 nM
2 | O=C(c1ccc(F)cc1)C1CCN(CCn2c(=O)[nH]c3ccccc3c2=O)CC1 |  | 0.87 | 
3 | CN(C)CCCSc1ccccc1NC(=O)/C=C/c1ccccc1 [CINANSERIN] | 5 nM | 0.76 | Ki [5]: 4.5 nM; Ki [6]: 3.8 nM
4 | O=C(CCCN1CCC2(CC1)C(=O)NCN2c1ccccc1)c1ccc(F)cc1 |  | 0.75 | 
5 | NCCc1c[nH]c2ccc(O)cc12 |  | 0.9 | 
6 | COc1cc(C[C@@H](C)N)c(OC)cc1Br |  | 0.84 | 
